Reference: US8067422B2, “Crystal form of phenylamino pyrimidine derivatives” (Natco Pharma Limited, priority 2008, dated 2011)
“Also recorded” adds a separate entry of the source.

What was measured:
[1] = tested on: 4910 human glioma xenograft cells; experiment: Glioma radiation study, nude mice intracranially implanted with 4910 cells; format: in vivo
Procedure: Nude mice were intracranially implanted with 4910 human glioma xenograft cells (1×10^6 cells). Ten days after implantation mice were treated with AN019, AN024 or temozolomide with or without radiation (5 Gy/week). The experiment was terminated at day 40 post implantation.

in vivo = conditions: mouse
K562 cells [2] = experiment: Anti-CML activity in nude mice implanted with K562 cells (leukemia growth index); format: in vivo; conditions: ip injections
Excerpt: Nude mice (nu/nu) were implanted with K562 cells (1×10^6) via tail vein.
Blood was drawn via the tail vein. Quantitative analysis of LGI was graphically represented.

4910 glioma cells = experiment: In vitro angiogenic assay, 4910 conditioned media on human dermal endothelial cells; format: cell-based; conditions: 4910 cells
Procedure: (§1) The in vitro angiogenesis of 4910, 5310 and U87 glioma cells and MDAMB231 and ZR71 breast cancer cells in the presence of specified concentrations of compounds were determined as follows, cells (2×10^4/well) were seeded in 8-well chamber slides and were treated with various concentrations of test compounds. After a 24 h incubation period, the conditioned media was removed and added to a 4×10^4 human dermal endothelial cell (monolayer in 8-well chamber slides) and the human dermal endothelial cells were allowed to grow for 72 h. Cells were then fixed in 3.7% formaldehyde and stained with H&E and photographed.

[3] = tested on: Baf3 murine leukemia cells (M351T); experiment: Blast cell count in nude mice implanted with Baf3 M351T cells; format: in vivo; conditions: Baf3M351T; Imatinib 10 mg/kg, AN019 20 mg/kg, AN024 20 mg/kg, oral gavage or ip; day 42
Excerpt: (§2) Blood smears were obtained via the tail vein or via the femoral vein every 6th day and blast cells counted and graphically represented.
(§3) Abdominal swelling and decrease in activity was monitored daily, blood smear taken via the tail vein or the femoral vein every 6th day and H&E stained as per standard protocols. 42 days after implantation, mice were sacrificed and spleens harvested.
(§4) Nude mice were intraperitoneally implanted with Baf3 mutant cells (wt, T315I, M351T or E255K). […] Blood was drawn from the femoral vein or tail vein every 6th day and blast cell count determined and graphically represented.

ZR71 breast cancer cells = experiment: In vitro angiogenic assay, ZR-71 conditioned media on human dermal endothelial cells; format: cell-based; conditions: ZR-71 cells; radiation not distinguished
Procedure: as §1

[4] = tested on: Baf3 murine leukemia cells (E255K); experiment: Blast cell count in nude mice implanted with Baf3 E255K cells; format: in vivo; conditions: Baf3 E225K (E255K); Imatinib 10 mg/kg, AN019 20 mg/kg, AN024 20 mg/kg, oral gavage or ip; day 42
Excerpt: as §2, §3, §4

[5] = tested on: AKT, ERK and Pi3k in ZR71 breast cancer cells; experiment: Western blot analysis, ZR71; format: cell-based
Procedure: (§5) Western blot analysis of 4910, 5310 and U87 glioma cells and MDAMB231 and ZR71 breast cancer cells in the presence of specified concentrations of compounds were assessed as per standard protocols. Cells were treated with AN019, AN024 or Temozolomide at the specified concentrations. 24 h after treatment, cells were collected and cell lysates extracted. Equal quantities of proteins were fractionated by SDS-PAGE. The fractionated proteins were blotted on to nylon membranes and immunoprobed for AKT, ERK and Pi3k. Breast cancer cell protein isolates were additionally immunoprobed for EGFR, ErbB1, ErbB2 and ErbB3.

K562 = experiment: ED50 (po) in leukemic mice (K562)
[6] = tested on: Baf3 murine leukemia cells (T315I); experiment: Blast cell count in nude mice implanted with Baf3 T315I cells; format: in vivo; conditions: Baf3T315I; Imatinib 10 mg/kg, AN019 20 mg/kg, AN024 20 mg/kg, oral gavage or ip; day 42
Excerpt: as §2, §3, §4

[7] = tested on: pAKT and pERK in glioma and breast cancer cells; experiment: Western blot analysis, pAKT and pERK (cell line not specified); format: cell-based; conditions: both with and without radiation
Procedure: as §5

[8] = tested on: AKT, ERK and Pi3k in 5310 glioma cells; experiment: Western blot analysis, 5310; format: cell-based
Procedure: as §5

[9] = tested on: K562 luc human leukemia cells; experiment: Luciferase expression in nude mice implanted with K562 luc cells, low dose oral administration; format: in vivo
Procedure: Five mice were used per group and divided into 24 groups+2 control. All groups were implanted with K562 normal/luc cells. Of the 24 groups, 12 were used for luciferase studies whereas the other 12 were used for blood smear count studies.
Drugs were administered by oral gavage (2% gum acacia and 2% SLS in an aqueous suspension).

[10] = tested on: MDAMB231 breast cancer cells; experiment: In vitro angiogenic assay, MDA-MB-231 conditioned media on human dermal endothelial cells; format: cell-based; conditions: MDA-MB-231 cells
Procedure: as §1

[11] = tested on: Baf3 murine leukemia cells (Wt); experiment: Blast cell count in nude mice implanted with Baf3 Wt cells; format: in vivo; conditions: Baf3Wt; Imatinib 10 mg/kg, AN019 20 mg/kg, AN024 20 mg/kg, oral gavage or ip; day 42
Excerpt: as §2, §3, §4

5310 glioma cells = experiment: In vitro angiogenic assay, 5310 conditioned media on human dermal endothelial cells; format: cell-based; conditions: 5310 cells
Procedure: as §1

K562 cells [12] = experiment: Spleenic enlargement and spleen Crk immunocytochemistry in K562 implanted nude mice; format: in vivo; conditions: ip injections
Procedure: Control mice were sacrificed on day 42 when secondary leukemia symptoms were observed, such as abdominal swelling and lack of circulation in the peripherals causing loss of digits with red spots under the skin surface. Spleen and any secondary tumors were harvested, fixed in formaldehyde and paraffin embedded as per standard protocols. Paraffin section were obtained and processed for immunocytochemistry. The rehydrated sections were treated with 0.3% H2O2 to inactivate any native peroxidases prior to immuno-probing. The sections were blocked with filter sterilized (0.22 μm) 1% BSA-PBS at room temperature for 1 h. Following blocking, the sections were immuno-probed with a human specific anti-Crk monoclonal primary antibody raised in rabbit against a synthetic peptide corresponding to residues in the SH2 domain, near the N-term of human CrkL protein (Abcam, Cambridge, Mass., USA) in 1% BSA-PBS overnight. Secondary antibody (anti-rabbit) conjugated to HRP was used to detect the presence of primary antibody. The sections were briefly rinsed three times in PBS solution after immuno-probing with secondary antibody, and DAB HRP substrate was added per manufacture's instructions (Sigma St Louis Mo. USA). The reaction was allowed to proceed until sharp contrast between positive and negative controls was observed. For negative controls primary antibody were eliminated. Leukemic mice spleen served as positive controls.
Mice were sacrificed after a decrease in LGI was observed and spleen harvested. […] Control mice also developed random subcutaneous tumors showing Crk expression, indicative of the presence of K562 cells.

## Cc1ccc(NC(=O)c2cc(C(F)(F)F)cc(C(F)(F)F)c2)cc1Nc1nccc(-c2cccnc2)n1 [AN019, (3,5-bis trifluoromethyl)-N-[4-methyl-3-(4-pyridin-3yl-pyrimidin-2ylamino)-phenyl]-benzamide]
[1]; with radiation (5 Gy/week)
  Intracranial tumour size and appearance: tumor size was significantly reduced
[1]; without radiation
  Intracranial tumour size and appearance: tumours similar to AN024 treated animals
In vivo
  MTD: 500 mg/kg
K562 cells [2]
  Physiological, phenotypic or behavioral abnormality: no abnormal physiological, phenotypic or behavioral abnormality
4910 glioma cells; after radiation
  Inhibition of angiogenesis: increase in angiogenic inhibition
4910 glioma cells; without radiation
  Inhibition of angiogenesis: inhibition of angiogenesis similar to MDA-MB-231 cells
[3]
  Blast cell count in blood smears: significant decrease in blast cell count
ZR71 breast cancer cells
  Inhibition of angiogenesis: complete inhibition of angiogenesis
[4]
  Blast cell count in blood smears: significant decrease in blast cell count
[5]; ZR71, after radiation
  AKT levels (Western blot): enhanced after radiation
[5]; ZR71, unirradiated
  AKT levels (Western blot): decrease in AKT levels
[5]; ZR71, with radiation
  PI3k levels (Western blot): absent
[5]; ZR71, without radiation
  PI3k levels (Western blot): absent
K562; Leukemic mice (K562)
  Therapeutic index - LD50/ED50: 98.5
K562; Mus musculus, K562, po, read-out: ED50 (po) Mice
  ED50: 11.5 mg/kg
[6]
  Blast cell count in blood smears: significant decrease in blast cell count
[7]
  pERK levels (Western blot): reduced significantly
[8]; 5310
  AKT expression levels (Western blot): decrease in AKT expression levels
[8]; 5310, after radiation
  PI3k levels (Western blot): reappeared after radiation treatment
[8]; 5310, without radiation
  PI3k levels (Western blot): almost undetectable
[9]; 1 mg/kg
  Luciferase expression: did not induce a decrease in luciferase expression
[9]; 5 mg/kg
  Luciferase expression: fixation of leukemia cells at constant expression levels
[9]; 10 mg/kg
  Luciferase expression: decrease in luciferase expression
[9]; 20 mg/kg
  Luciferase expression: decrease in luciferase expression
[10]; after radiation
  Inhibition of angiogenesis: slight inhibition
[10]; control condition (without radiation)
  Inhibition of angiogenesis: slight inhibition
[11]
  Blast cell count in blood smears: complete regression of leukemic blast cells
5310 glioma cells; after radiation
  Inhibition of angiogenesis: inhibition of angiogenesis was greater in control conditions than after radiation treatment
5310 glioma cells; control conditions (without radiation)
  Inhibition of angiogenesis: inhibition of angiogenesis was greater in control conditions than after radiation treatment
K562 cells [12]
  Crk expression in spleen (immunohistochemistry): basal levels of Crk expression; also recorded: only basal level expression
  Spleenic enlargement (gross observation): did not show any spleenic enlargement
